Experimental findings from patent publication US20050020567A1, “Method of treating bacterial infections using gemifloxacin or a salt thereof and a carbapenem antibacterial agent” (priority 2002, published 2005) are described below.

Common to all, as to assay type: cell-based, Pseudomonas aeruginosa
One test has as its system P. aeruginosa ATCC 27853. The test can be described thus: checkerboard titration, gemifloxacin and meropenem (MIC, FIC). The conditions noted are these: for MIC: Pseudomonas aeruginosa. The method, then:
Evaluation for synergistic activity was carried out by calculation of fractional inhibitory concentrations (FICs) according to the method of Eliopoulos et al (1996, Antimicrobial Combinations, Antibiotics in Laboratory Medicine, Victor Lorian, 4th Edition, pp 337-338, Baltimore, Md., Williams and Wilkins).
P. aeruginosa ATCC 27853 was obtained from the SmithKline Beecham Anti-Infectives Research Culture Collection and stored at −80° C. in 10% glycerol. Before testing, the isolate was passaged onto agar plates (trypticase soy agar containing 5% sheeps blood) from the frozen stock for two consecutive days. Cation adjusted Mueller Hinton broth (BBL, Cockeyville, Md.) was used for the isolate.
Checkerboard microtitre broth dilution plates were prepared using the Hamilton MicroLab AT Plus system (Reno, Nev.). Two-fold serial dilutions (50 μl) of meropenem were made in columns 1 through 11 of a microtitre plate. Two-fold serial dilutions of gemifloxicin were prepared manually and the MicroLab AT Plus was used to dispense 25 μl of gemifloxacin at each concentration into rows A through G of the microtitre plate. The concentration range tested varied for each drug/organism combination to encompass the MIC endpoints of the individual components. Column 12 contained two fold serial dilutions of gemifloxacin only, and row H contained two fold serial dilutions of meropenem only. The last well (H) in column 12 was used as a positive growth control well, containing only medium and test isolate.
The bacteria were diluted to a 0.5 McFarland standard and then further diluted 1/50. Each well was inoculated with 25 μl of the isolate to give a final inoculum density of approximately 5×10^5 cfu/ml. The MicroLab AT Plus 2 was used to add the inoculum to the microtitre plates. After inoculation, the plates were covered with a 96 well microtitre plate lid and incubated at 35° C. in ambient air for 20-24 hours. A 10 μl aliquot of the inoculum was plated on trypticase soy agar containing 5% sheep blood to determine the purity of the final test inoculum.
Following incubation, a microtitre mirror reader (Cooke Instruments Ltd., England) was used to assist in determining the microdilution MIC endpoints. The MIC was determined as the lowest concentration of compound that inhibited visible growth of the organism.
The Fractional Inhibitory Concentrations (FICs) were calculated using the following formula: (A)/(MIC A)+(B)/(MIC B)=FIC A+FIC B=FIC Index wherein: • A is the MIC of drug A in the presence of drug B • B is the MIC of drug B in the presence of drug A • MIC A is the MIC of the organism to drug A alone • MIC B is the MIC of the organism to drug B alone • FIC A is the fractional inhibitory concentration of drug A • FIC B is the fractional inhibitory concentration of drug B

A further test relates to P. aeruginosa 6140. The test can be described thus: checkerboard titration, gemifloxacin and imipenem (MIC, FIC). As to conditions: for MIC: Pseudomonas aeruginosa, alone. As for the experimental part: (§1) The combined effect of gemifloxacin and imipenem was investigated in P. aeruginosa by using a checkerboard titration method. The test organisms used in this study were all clinical isolates collected in Korea. The isolates were maintained frozen at −70° C. prior to testing.
(§2) Gemifloxacin was tested at 12 concentrations (0.016-32 μg/ml) and imipenem was tested at 11 concentrations (0.016-16 μg/ml). Gemifloxacin was dispensed alone in the first row and combined with imipenem in the remaining rows. Imipenem solution was also dispensed alone in the first row in the first column. Test strains were grown for 18 h in Mueller-Hinton Broth, and then these overnight cultures were diluted with the same fresh medium to the density of approximately 10^7 CFU/mL. The bacterial concentrations were determined by measuring optical density or turbidity of the suspension and were verified by standard colony counts on antibiotic-free agar plates. A diluted bacterial solution was applied to plates containing serially diluted antimicrobial agents to yield 5×10^5 CFU/mL. Plates were incubated at 35° C. for 18 hours.
(§3) Minimal inhibitory concentrations (MICs) for each separate drug were determined. For wells along the growth-no growth interface, synergy was determined by calculating the Fractional Inhibitory Concentration (FIC) index. The Fractional Inhibitory Concentration (FIC) indices were calculated using the following formula: FIC index=FICA+FICB=[A]/MICA+[B]/MICB Wherein: • FICA(or B), is the FIC of drug A (or B) • MICA (or B) is the MIC of the organism to drug A (or B) • A (or B) is concentration of drug A (or B) that is the lowest inhibitory concentration
(§4) The FIC indices were interpreted using the following criteria: • ≦0.5=Synergy; • >0.5-1.0=Additive; • >1.0-4.0=Indifference; • >4.0=Antagonism

Another test relates to P. aeruginosa 6168. The test is described as above. As to conditions: for MIC: Pseudomonas aeruginosa, alone. As for the experimental part: as §1, §2, §3, §4
The next test deals with P. aeruginosa PA018R. Described as above. The conditions noted are these: for MIC: Pseudomonas aeruginosa, alone. The method, then:
as §1, §2, §3, §4

The mark [1] stands for this setting: gemifloxacin in combination with imipenem.
Setting [2] is: imipenem in combination with gemifloxacin.

Each structure is given as a SMILES string. Where two headings read alike, the source gives them in different places.

In the case of `CO/N=C1\CN(c2nc3c(cc2F)c(=O)c(C(=O)O)cn3C2CC2)CC1CN` (racemic) [gemifloxacin, (R,S)-7-(3-aminomethyl-4-methoxyiminopyrrolidin-1-yl)-1-cyclopropyl-6-fluoro-4-oxo-1,4-dihydro-1,8-naphthyridine-3-carboxylic acid], the MIC (commonly the lowest concentration that inhibits growth of the organism) is 0.125 µg/mL with P. aeruginosa ATCC 27853 (ATCC27853, in the presence of meropenem 0.125 μg/ml, read-out: gemifloxacin MIC); 8 µg/mL with P. aeruginosa 6140 (read-out: gemifloxacin MIC); 0.5 µg/mL in the test on P. aeruginosa 6168 (read-out: gemifloxacin MIC); 4 µg/mL in the test with P. aeruginosa PA018R (read-out: gemifloxacin MIC). Besides, the gemifloxacin MIC with P. aeruginosa ATCC 27853 (gemifloxacin alone) turned out to be 0.5 µg/mL. For the same compound, the FICA in the test on P. aeruginosa 6140 (FIC of gemifloxacin) is 0.25; with P. aeruginosa 6168 (FIC of gemifloxacin), 0.13; with P. aeruginosa PA018R (FIC of gemifloxacin), 0.25. Further, the “Cgemifloxacin MIC” value in the test on P. aeruginosa 6140 (setting [1]) is 2 µg/mL; in the test on P. aeruginosa 6168 (setting [1]), 0.0625 µg/mL; with P. aeruginosa PA018R (setting [1]) it was 1 µg/mL.
Turning to `C[C@@H](O)[C@H]1C(=O)N2C(C(=O)O)=C(S[C@@H]3CN[C@H](C(=O)N(C)C)C3)[C@H](C)[C@H]12` [meropenem], the MIC in the test with P. aeruginosa ATCC 27853 (ATCC27853, in the presence of gemifloxacin 0.125 μg/ml, read-out: meropenem MIC) is 0.125 µg/mL. Further, in the test with P. aeruginosa ATCC 27853 (meropenem alone), the meropenem MIC was 0.5 µg/mL.
For the compound `C[C@@H](O)[C@H]1C(=O)N2C(C(=O)O)=C(SCCN=CN)C[C@H]12` [imipenem], the figures for the FICB in the test on P. aeruginosa 6140 (FIC of imipenem), in the test on P. aeruginosa 6168 (FIC of imipenem) and in the test on P. aeruginosa PA018R (FIC of imipenem) were 0.25, 0.25 and 0.06, respectively. Also, the MIC in the test on P. aeruginosa 6140 (read-out: imipenem MIC) was determined as 4 µg/mL; in the test on P. aeruginosa 6168 (read-out: imipenem MIC), 1 µg/mL; in the test on P. aeruginosa PA018R (read-out: imipenem MIC), 16 µg/mL. In addition, the “Cimipenem MIC” value in the test on P. aeruginosa 6140 (setting [2]) is 1 µg/mL; in the test on P. aeruginosa 6168 (setting [2]), 0.25 µg/mL; with P. aeruginosa PA018R (setting [2]), 1 µg/mL.
